{"source": "paper PMC9643865", "about": "“Bromo-protopine, a novel protopine derivative, alleviates tau pathology by activating chaperone-mediated autophagy for Alzheimer’s disease therapy” (Frontiers in Molecular Biosciences, 2022)", "key": {"HDAC6": {"molecular_target": "T1, HDAC6 (Homo sapiens, UniProt Q9UBN7)", "T1 construct": "purchased Enzo Life Sciences BML-AK516", "T1 sequence (Q9UBN7 1-1215)": "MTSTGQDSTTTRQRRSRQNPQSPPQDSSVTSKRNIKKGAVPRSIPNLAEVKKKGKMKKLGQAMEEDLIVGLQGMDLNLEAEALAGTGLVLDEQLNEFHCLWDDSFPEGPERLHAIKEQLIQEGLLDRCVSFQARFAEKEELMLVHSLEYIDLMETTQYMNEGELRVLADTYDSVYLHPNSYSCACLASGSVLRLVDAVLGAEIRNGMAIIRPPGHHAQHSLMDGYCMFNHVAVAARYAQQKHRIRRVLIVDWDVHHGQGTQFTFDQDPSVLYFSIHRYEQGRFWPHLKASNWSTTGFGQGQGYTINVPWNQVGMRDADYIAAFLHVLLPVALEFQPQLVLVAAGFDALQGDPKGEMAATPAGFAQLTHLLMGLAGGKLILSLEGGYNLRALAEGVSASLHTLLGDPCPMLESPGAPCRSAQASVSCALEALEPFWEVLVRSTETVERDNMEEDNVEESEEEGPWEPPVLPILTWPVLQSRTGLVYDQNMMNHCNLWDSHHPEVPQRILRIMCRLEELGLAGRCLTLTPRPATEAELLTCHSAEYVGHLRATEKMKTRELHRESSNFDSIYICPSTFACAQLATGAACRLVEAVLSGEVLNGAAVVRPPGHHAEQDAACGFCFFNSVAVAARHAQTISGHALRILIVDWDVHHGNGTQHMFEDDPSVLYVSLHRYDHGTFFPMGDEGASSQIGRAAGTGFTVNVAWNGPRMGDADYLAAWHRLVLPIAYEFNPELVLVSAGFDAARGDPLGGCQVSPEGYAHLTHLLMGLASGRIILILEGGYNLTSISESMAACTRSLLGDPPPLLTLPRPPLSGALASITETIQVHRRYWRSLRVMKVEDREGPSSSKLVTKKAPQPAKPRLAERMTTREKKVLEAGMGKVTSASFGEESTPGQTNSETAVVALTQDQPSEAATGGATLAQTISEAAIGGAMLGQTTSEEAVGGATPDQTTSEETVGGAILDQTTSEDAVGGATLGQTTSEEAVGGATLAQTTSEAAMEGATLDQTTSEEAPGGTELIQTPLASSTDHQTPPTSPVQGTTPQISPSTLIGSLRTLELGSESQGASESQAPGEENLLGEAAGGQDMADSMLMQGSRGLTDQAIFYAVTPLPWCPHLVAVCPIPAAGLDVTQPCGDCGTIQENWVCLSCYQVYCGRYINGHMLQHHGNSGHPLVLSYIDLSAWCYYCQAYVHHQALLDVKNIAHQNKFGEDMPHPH", "test": "HDAC6 deacetylase fluorometric assay with pure HDAC6 protein", "assay_type": "biochemical", "conditions": "read-out: 50% inhibitory concentration (IC50) on HDAC6 activity", "experimental": "Inhibition of HDAC6 activity was performed in accordance with the manufacturer’s protocol. Briefly, PRO-Br at various concentrations in HDAC Assay buffer II were prepared. The appropriate substrate solution provided in the kit was added, and the reaction plate was incubated at 37°C. The reaction was stopped by the addition of Developer II, and the fluorometric reading was measured at 440 nm using a fluorometer (Wallac EnVision).\nHDAC6 is a cytoplasmic deacetylase that targets key proteins such as α-tubulin and HSP90. […] Therefore, inhibition of HDAC6 activity could be a promising therapeutic strategy for AD. […] To determine the binding of PRO/PRO-Br to HDAC6, we used molecular docking, and the binding affinity was determined from the binding free energies (Kcal/mol). From the docking study, the binding free energy of PRO-Br and PRO with HDAC6 was calculated to be −8.4 kcal/mol and −8.1 kcal/mol (Figures 5C–F), respectively."}, "HT22 cells": {"tested_on": "HT22 cells", "test": "LAMP2A / HSC70 immunocytochemistry and immunoblotting", "assay_type": "cell-based, mouse", "conditions": "immunocytochemistry, 12.5 and 25 μM, 24 h", "experimental": "SHSY5Y cells stably-expressing mutant tau (SHSYP301L) were cultured in DMEM/F12 + 15% FBS, 3 μg/ml Blasticidin S HCl, and 1X PSN. N2A mouse neuroblastoma and mouse hippocampal neuronal (HT22) cells were cultured in DMEM+10% FBS, and 1X PSN. Sterile complete medium containing PRO-Br was added to the cells, and they were then incubated for 24 h at an optimum temperature of 37°C in a sterile 5% CO2 incubator.\nAfter PRO-Br treatment, cells were solubilised using cold RIPA lysis buffer (9803, Life Technologies), containing protease and phosphatase inhibitor tablets. Cells were sonicated and centrifuged at 14000 rpm for 15 min. Total protein concentration was determined by BCA protein assay, and the samples were separated on SDS-PAGE and transferred to PVDF membranes. The membranes were blocked, washed, and incubated with primary antibodies (Table 1), and incubated at 4°C, overnight. The membranes were further incubated with the required dilutions of secondary antibody for 1 h, at RT. The chemiluminescent signals were captured using x-ray film in a darkroom, with an appropriate chemiluminescent substrate kit (ThermoFisher Scientific, United States). Films were scanned, and the relative intensities of the signals were analyzed using ImageJ software.\nHT22 cells were cultured in sterile 24-well culture dishes containing 14 mm cover-glass. Cells were treated with PRO-Br (12.5 and 25 μM), and DMSO (0.1%), for 24 h. Cells were fixed with paraformaldehyde (4%), permeabilized with triton-X-100 (0.1%), and blocked with BSA (2%). LAMP2A antibody (1:500), and HSC70 antibody (1:500) was added to the processed cells and incubated overnight at four°C. Alexa Fluor® 488 (green) and Alexa Fluor® 594 (red) secondary antibodies (1:400) were added and incubated for 1.5 h at room temperature. FluorSave reagent (Merck Millipore, United States) was added, then cover-slipped, and images were captured by a Leica confocal imaging system."}}}
{"smiles": "CN1CCc2cc3c(cc2C(=O)Cc2ccc4c(c2C1)OCO4)OCO3", "note": "[PRO, Protopine]", "values": [{"measurement": "IC50", "setting": "HDAC6", "result": 2360, "unit": "nM"}, {"measurement": "expression of LAMP2A", "setting": "HT22 cells", "result": "did not enhance LAMP2A protein expression"}]}
